Assay [1] deals with T1, Flt3 (Homo sapiens, UniProt P36888). Description: Recombinant kinase ELISA assay, Flt3. The format is biochemical. The settings on record: recombinant human enzyme; ELISA-based assay, poly(Glu,Tyr 4:1) substrate. The protocol: (§1) Full details for the generation of recombinant human KIT intracellular domain and other protein kinases (including Lyn, platelet derived growth factor receptor β, epidermal growth factor receptor, fibroblast growth factor receptor 1, Src, HCK, PYK, FES, Btk, Bmx, c-Ret, c-Fms, Syk, and c-Met) are provided in the Supplemental Methods (see Supporting Information; Methods S1). Experiments on ABL1, Akt1, protein kinase C-α, insulin-like growth factor receptor 1, and Pim1 were carried out by Proqinase (Germany). All other recombinant protein kinases were performed in-house using an enzyme-linked immunoassay; experimental details are provided in the Supplemental Methods (see Supporting Information; Methods S1).
T1 sequence (P36888 27-993): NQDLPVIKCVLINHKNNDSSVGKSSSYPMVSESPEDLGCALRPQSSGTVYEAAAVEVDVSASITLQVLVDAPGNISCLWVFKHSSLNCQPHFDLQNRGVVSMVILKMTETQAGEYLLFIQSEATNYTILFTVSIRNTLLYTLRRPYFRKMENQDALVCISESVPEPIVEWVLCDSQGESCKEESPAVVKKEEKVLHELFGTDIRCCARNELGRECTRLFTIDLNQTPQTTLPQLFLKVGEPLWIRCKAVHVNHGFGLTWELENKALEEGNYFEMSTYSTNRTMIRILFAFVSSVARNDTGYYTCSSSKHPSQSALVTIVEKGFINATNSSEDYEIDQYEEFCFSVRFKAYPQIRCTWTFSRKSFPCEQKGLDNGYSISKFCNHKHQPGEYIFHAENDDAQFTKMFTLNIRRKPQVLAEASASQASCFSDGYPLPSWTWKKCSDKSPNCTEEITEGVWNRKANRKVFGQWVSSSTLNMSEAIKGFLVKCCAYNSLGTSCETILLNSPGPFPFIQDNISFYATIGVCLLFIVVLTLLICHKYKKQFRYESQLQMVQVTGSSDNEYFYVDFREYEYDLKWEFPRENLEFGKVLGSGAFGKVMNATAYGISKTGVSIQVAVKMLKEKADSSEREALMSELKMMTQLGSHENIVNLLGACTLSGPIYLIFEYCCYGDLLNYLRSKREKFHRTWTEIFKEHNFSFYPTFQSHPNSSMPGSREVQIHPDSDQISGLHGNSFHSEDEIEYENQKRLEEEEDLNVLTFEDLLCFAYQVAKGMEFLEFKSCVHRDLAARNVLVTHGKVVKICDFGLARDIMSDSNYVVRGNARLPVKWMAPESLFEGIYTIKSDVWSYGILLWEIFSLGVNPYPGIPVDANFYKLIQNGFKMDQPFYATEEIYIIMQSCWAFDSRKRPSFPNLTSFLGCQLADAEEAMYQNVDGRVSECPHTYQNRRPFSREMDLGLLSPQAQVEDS
For orientation: ELISA stands for enzyme-linked immunosorbent assay.

The next assay deals with T2, c-Ret (Homo sapiens, UniProt P07949).
T2 construct: c-Ret (713–1114; BC004257); 6xHN (N); made in house; host or cells: baculovirus, Sf9 insect cells
T2 sequence (P07949 713-1072 isoform P07949-2): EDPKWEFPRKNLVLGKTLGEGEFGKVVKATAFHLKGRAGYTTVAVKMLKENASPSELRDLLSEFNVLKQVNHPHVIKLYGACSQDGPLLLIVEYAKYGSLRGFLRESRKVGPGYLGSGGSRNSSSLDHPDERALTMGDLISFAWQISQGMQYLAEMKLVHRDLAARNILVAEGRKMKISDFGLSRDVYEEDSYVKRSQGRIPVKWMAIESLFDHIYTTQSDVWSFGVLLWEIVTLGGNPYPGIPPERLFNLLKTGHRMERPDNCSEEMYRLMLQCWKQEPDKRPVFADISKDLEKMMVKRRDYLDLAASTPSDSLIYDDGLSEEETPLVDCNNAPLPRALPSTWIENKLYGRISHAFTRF
Description: Recombinant kinase ELISA assay, c-Ret. The settings on record: recombinant human enzyme; ELISA-based assay, poly(Glu,Tyr 4:1) substrate. The assay is classed as biochemical. As for the experimental part: as §1
(§2) The sequences encoding PDGF receptor β (residues 554–1106; GenBank accession no. BC032224), Lyn B (2–583; accession no. BC059394), fibroblast growth factor receptor 1 (572–959; accession no. BC018128), Src (2–536; accession no. BC011566), Btk (2–659; accession no. BC109079), Bmx (2–675; accession no. BC016652), c-Ret (713–1114; accession no. BC004257), c-Fms (538–972; BC047531), Syk (2–612; BC011399), Hck (2-526; accession no. BC014435), Fes (2-822; accession no. BC035357), PYK2 (2-1006; accession no. BC042599) and c-Met (949–1398; accession no. lifeseq3489592) were amplified by PCR from IMAGE cDNA clones purchased from Openbiosystems. […]

For assay [2], the target named is T3, Proline-rich Tyrosine kinase (FAK2/PYK2) (Homo sapiens, UniProt Q14289).
T3 construct: PYK2 (2-1006; BC042599); 6xHN (N); made in house; host or cells: baculovirus, Sf9 insect cells
T3 sequence (Q14289 2-1006): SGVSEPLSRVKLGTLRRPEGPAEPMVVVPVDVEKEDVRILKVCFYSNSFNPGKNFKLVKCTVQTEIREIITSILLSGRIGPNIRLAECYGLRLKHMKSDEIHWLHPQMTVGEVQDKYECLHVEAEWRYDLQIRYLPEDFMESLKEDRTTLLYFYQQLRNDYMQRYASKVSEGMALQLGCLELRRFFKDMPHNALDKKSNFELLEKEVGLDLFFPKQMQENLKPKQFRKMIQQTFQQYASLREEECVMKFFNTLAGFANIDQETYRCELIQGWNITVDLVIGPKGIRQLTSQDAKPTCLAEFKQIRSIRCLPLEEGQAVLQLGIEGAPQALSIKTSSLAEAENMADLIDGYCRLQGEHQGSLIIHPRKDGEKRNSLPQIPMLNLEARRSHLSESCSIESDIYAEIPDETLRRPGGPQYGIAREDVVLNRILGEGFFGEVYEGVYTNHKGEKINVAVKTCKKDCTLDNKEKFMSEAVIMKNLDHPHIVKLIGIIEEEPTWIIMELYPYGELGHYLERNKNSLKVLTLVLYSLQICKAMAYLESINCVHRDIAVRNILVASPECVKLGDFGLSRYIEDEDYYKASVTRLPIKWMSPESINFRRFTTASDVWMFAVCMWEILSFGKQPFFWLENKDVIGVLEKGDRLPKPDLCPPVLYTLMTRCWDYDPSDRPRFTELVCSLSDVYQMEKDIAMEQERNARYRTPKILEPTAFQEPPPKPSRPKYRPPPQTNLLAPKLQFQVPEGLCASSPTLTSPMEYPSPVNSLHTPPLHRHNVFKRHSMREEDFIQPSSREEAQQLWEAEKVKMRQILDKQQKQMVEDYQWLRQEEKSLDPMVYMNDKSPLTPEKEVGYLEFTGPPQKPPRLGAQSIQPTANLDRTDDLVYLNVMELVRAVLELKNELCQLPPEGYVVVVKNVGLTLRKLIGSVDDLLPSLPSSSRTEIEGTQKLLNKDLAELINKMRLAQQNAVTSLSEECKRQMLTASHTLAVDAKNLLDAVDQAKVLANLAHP
Description: Recombinant kinase ELISA assay, PYK2. The format is biochemical. To be noted: recombinant human enzyme; ELISA-based assay, poly(Glu,Tyr 4:1) substrate. As for the experimental part: as §1, §2

Another assay addresses T4, Lyn B (Homo sapiens, UniProt P07948).
T4 construct: Lyn B (2–583; BC059394); 6xHN (N); made in house; host or cells: baculovirus, Sf9 insect cells
Description: Recombinant kinase ELISA assay, Lyn B. To be noted: recombinant human enzyme; ELISA-based assay, poly(Glu,Tyr 4:1) substrate. The assay is classed as biochemical. The protocol:
as §1

The target in another assay is T5, Fes (Homo sapiens, UniProt P07332).
T5 construct: Fes (2-822; BC035357); 6xHN (N); made in house; host or cells: baculovirus, Sf9 insect cells
T5 sequence (P07332 2-822): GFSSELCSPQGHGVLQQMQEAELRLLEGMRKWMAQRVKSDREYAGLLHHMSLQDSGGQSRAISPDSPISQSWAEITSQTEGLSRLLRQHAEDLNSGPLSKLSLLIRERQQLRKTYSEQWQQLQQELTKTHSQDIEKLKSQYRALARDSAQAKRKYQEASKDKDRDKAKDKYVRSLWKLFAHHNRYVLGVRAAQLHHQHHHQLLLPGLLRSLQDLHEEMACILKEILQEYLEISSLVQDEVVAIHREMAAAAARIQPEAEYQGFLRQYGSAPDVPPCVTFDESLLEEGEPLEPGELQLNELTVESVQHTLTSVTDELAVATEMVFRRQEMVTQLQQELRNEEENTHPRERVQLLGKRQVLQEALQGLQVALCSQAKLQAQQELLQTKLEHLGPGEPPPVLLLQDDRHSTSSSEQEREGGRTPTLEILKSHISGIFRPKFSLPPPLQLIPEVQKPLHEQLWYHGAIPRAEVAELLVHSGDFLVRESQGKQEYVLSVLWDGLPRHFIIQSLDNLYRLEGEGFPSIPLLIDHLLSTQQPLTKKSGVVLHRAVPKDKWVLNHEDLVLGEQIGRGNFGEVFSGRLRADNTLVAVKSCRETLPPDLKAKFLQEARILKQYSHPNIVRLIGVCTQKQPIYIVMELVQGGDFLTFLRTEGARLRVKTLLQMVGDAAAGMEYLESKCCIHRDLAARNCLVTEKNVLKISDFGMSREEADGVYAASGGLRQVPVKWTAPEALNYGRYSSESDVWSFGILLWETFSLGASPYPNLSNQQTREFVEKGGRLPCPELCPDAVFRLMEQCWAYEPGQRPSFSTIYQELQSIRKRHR
As to the kind of experiment: Recombinant kinase ELISA assay, Fes. The settings on record: recombinant human enzyme; ELISA-based assay, poly(Glu,Tyr 4:1) substrate. The assay is classed as biochemical. As for the experimental part:
as §1, §2

Another assay addresses T6, Akt1 (Homo sapiens, UniProt P31749).
T6 construct: purchased Proqinase (Germany)
Description: Recombinant kinase screen (Proqinase), Akt1. The assay is classed as biochemical. To be noted: recombinant human enzyme; single experiment, kinase screen by Proqinase. As for the experimental part:
as §1

Assay [3] has as its target T1, Flt3. As to the kind of experiment: Ba/F3 cell proliferation (WST-1), Flt3. To be noted: Ba/F3 cells expressing the enzyme, read-out: Cell-based assay IC50, Flt3. Background: Formazan colour is commonly taken as a measure of viable cells.
Assay [4] deals with Fibroblast growth factor receptor 3 (Homo sapiens, UniProt P22607). As to the kind of experiment: Ba/F3 cell proliferation (WST-1), FGFR3. To be noted: Ba/F3 cells expressing the enzyme, read-out: Cell-based assay IC50, Fibroblast growth factor receptor 3.
Fibroblast growth factor receptor 3, sequence (P22607 23-806): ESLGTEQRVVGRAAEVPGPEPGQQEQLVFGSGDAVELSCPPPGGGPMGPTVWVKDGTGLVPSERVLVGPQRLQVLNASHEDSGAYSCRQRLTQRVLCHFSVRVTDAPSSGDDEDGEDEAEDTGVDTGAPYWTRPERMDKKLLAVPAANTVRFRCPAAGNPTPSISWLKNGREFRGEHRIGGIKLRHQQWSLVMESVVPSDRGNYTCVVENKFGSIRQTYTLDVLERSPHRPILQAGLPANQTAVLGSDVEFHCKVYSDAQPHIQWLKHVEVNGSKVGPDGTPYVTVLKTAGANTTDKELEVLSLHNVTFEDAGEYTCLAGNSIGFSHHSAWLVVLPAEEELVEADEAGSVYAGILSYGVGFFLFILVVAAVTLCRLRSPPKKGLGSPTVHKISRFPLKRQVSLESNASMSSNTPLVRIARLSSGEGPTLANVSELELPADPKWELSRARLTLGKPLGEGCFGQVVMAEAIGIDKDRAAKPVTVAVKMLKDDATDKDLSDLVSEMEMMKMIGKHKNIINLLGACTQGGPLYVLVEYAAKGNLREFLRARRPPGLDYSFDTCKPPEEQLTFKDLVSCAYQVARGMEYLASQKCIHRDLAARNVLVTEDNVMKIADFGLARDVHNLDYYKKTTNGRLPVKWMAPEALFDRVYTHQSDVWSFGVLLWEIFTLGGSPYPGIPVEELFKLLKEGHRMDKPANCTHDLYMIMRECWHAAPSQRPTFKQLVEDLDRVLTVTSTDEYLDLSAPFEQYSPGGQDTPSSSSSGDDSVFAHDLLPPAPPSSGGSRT
The next assay deals with T7, Jak1 (Homo sapiens, UniProt P23458).
T7 construct: expressed in transfected cells; host or cells: Ba/F3
As to the kind of experiment: Ba/F3 cell proliferation (WST-1), Jak1. To be noted: Ba/F3 cells expressing the enzyme, read-out: Cell-based assay IC50, Jak1.

For assay [5], the system named is human cord-blood-derived mast cells (CBMC). Description: FcεRI-mediated degranulation (β-hexosaminidase release) of IgE-anti IgE activated CBMC. The assay is classed as cell-based. The settings on record: Mast cell, 0.5 h, 30 minutes of stimulation. The protocol:
(see Supporting Information; Methods S1). […] Assays of β-hexosaminidase release and TNF-α release were made by stimulating the CBMC with 1 µg/ml of goat anti-human IgE (Vector Laboratories) for 30 minutes or 4 hours, respectively. β-hexosaminidase was measured in the supernatant and in the sonicated cell pellets and its net release calculated. For TNF-α determination, the cell-free supernatants were collected by centrifugation and frozen at −80°C until determination of mediator content by the use of a specific ELISA kit according to manufacturer's instructions (Coulter, France). All assays were performed in duplicate and counts were repeated twice for each well.
Human CBMC were produced by long-term culture of CD34+ progenitors purified from normal cord-blood. […] At the beginning of the culture, rhIL-3 (1 ng/ml) (R&D Systems Europe, France) was also added to induce maximal expansion of haematopoietic progenitors. After 3 days the IL-3 was removed and 4 days later cells were transferred to a complete serum-free medium containing rmSCF at 100 ng/ml, which was renewed every 7 days thereafter. After 8 weeks in culture ≥99% of the cells were identified as being mast cells by May-Grünwald-Giemsa staining of cytocentrifuged samples.

Assay [6] concerns EOL1 cells expressing the FIP1L1-PDGFRα chimeric protein. Description: EOL1 cell proliferation. The assay is classed as cell-based. The settings on record: Homo sapiens, EOL1, read-out: IC50, inhibition of proliferation in EOL1 cells. As for the experimental part: Figures 5C), a hypereosinophilic tumour cell line expressing the FIP1L1-PDGFRα chimeric protein, which is associated with chronic eosinophilic leukaemia.
Cell growth was assessed by WST-1 colorimetric assay. […] (D) Western blotting analysis of EOL1 tyrosine phosphorylation. MW = molecular weight markers.

The target of a further assay is PDGFRβ (Homo sapiens, UniProt P09619). As to the kind of experiment: Ba/F3 cell proliferation (WST-1), PDGFRβ. Set-up: expressed in transfected cells; host or cells: Ba/F3 (general description of the cell system; not repeated for this kinase). To be noted: Ba/F3 cells expressing the enzyme, read-out: Cell-based assay IC50, PDGFRβ.

Bounds are passed on as bounds.

T6 sequence (P31749 whole entry): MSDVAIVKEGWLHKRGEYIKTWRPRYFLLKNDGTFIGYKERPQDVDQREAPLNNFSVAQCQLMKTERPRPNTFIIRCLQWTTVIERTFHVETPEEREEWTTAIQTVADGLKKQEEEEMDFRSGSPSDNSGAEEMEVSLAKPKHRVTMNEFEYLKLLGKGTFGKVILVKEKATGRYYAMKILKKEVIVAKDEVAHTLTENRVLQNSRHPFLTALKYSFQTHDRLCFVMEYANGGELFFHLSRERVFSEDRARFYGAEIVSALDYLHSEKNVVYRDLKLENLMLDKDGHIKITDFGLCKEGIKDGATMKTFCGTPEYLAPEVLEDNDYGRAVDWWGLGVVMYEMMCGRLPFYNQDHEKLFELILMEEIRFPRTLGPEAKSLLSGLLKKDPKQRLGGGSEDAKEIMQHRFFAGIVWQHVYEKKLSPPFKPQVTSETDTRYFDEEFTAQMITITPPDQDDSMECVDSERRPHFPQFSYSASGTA
T4 sequence (P07948 2-491 isoform P07948-2 limits assumed): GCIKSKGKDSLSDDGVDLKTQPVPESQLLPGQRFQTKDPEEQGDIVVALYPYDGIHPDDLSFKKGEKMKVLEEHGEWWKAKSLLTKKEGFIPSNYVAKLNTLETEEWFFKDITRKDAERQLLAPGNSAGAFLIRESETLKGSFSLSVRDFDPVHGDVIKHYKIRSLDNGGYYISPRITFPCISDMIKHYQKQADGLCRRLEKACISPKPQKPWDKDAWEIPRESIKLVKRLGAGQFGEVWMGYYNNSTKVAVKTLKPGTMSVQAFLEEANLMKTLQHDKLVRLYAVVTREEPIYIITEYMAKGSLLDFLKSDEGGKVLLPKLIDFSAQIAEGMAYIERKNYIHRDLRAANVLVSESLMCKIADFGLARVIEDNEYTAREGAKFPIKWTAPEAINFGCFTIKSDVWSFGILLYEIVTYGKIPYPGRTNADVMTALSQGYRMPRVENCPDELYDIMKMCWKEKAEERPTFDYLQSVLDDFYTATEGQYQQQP

As a reminder, the inhibition is the drop in the measured response relative to a control, in per cent. High values mean a strong effect, low ones a weak effect. As for `CS(=O)(=O)O.CS(=O)(=O)O.Cc1ccc(NC(=O)c2ccc(CN3CCN(C)CC3)cc2)cc1Nc1nc(-c2cccnc2)cs1` [masitinib, 4-(4-methylpiperazin-1-ylmethyl)-N-[4-methyl-3-(4-pyridin-3ylthiazol-2-ylamino)phenyl]benzamide-mesylate methane sulfonic acid salt], the IC50 on Flt3 [1] is more than 10 µM; on c-Ret, more than 10 µM; in assay [2], more than 10 µM; on Lyn B, 0.51 ± 0.13 µM; on Fes, more than 10 µM; on Akt1 it was more than 10 µM. Besides, the IC50 was 5 ± 2 µM at Flt3 [3]; 5.5 ± 2.8 µM in assay [4]; 8 ± 1.4 µM at Jak1; 0.0002 ± 0.0001 µM in assay [6]; 0.05 ± 0.02 µM on PDGFRβ. The compound further registered an inhibition at 0.1 µM in assay [5] (0.1 µM) of 7%. This compound had an inhibition at 1 µM in [5] (1.0 µM) of 18%. Moreover, in assay [5] (10 µM), the inhibition at 10 µM was found to be 35%.

(Values after paper PMC2746281 (PLoS ONE, 2009).)
